Test results from article PMC8100298, “Histone deacetylase inhibitor resminostat in combination with sorafenib counteracts platelet-mediated pro-tumoral effects in hepatocellular carcinoma” (Scientific Reports, 2021).
Read-outs that look alike come from different tables or passages of the source.

Tests used:
PLC/PRF/5 = assay: Proliferation assay; type: cell-based; details: for EC50: Homo sapiens
Excerpt: (§1) The cell lines HepG2 (ACC180, RRID:CVCL_0027; DMSZ, Braunschweig Germany), SNU-475 (CRL-2236, Lot. 58483227, RRID:CVCL_0497; ATCC, Manassas, Virginia, US), SNU-387 (CRL-2237, Lot. 58483192, RRID:CVCL_0250; ATCC, Virginia, US), PLC/PRF/5 (300315, Lot. 812, RRID:CVCL_0485; CLS Cell Lines Service GmbH, Eppelheim, Germany) and HuH-7 (JCRB0403, Lot. 2272008, RRID:CVCL_0336; JCRB Cell Bank, Japan) were propagated according to the distributor’s guidelines. The authenticity of the cell lines was confirmed by short tandem repeat (STR) analysis (DSMZ, Braunschweig, Germany). Mycoplasma contamination was ruled out by PCR testing. For assays with platelet lysate (PL), FBS was substituted with 10% PLTMax Human Platelet Lysate (Cat. Nr. SCM141, Lot Number VP1602259; Millipore, Burlington, Massachusetts, US). The PL was supplemented with 20 U/ml Heparin (Heparin sodium salt from porcine intestinal mucosa, H4784-250MG; Sigma-Aldrich, Taufkirchen, Germany) to prevent coagulation.
(§2) Prior to the assay, the optimal seeding density was determined for each cell line to obtain an exponential growth during the experiment (2000 to 6000 cells per 96-well). Drug dilution series with 8 concentrations were prepared for EC50 determinations of single drugs. Three wells for each concentration were seeded (technical replicates). For drug combinations, dilution series of six concentrations for each drug alone or in combination at equal ratio were prepared. After 4 h of cell seeding, the drugs were added to the cells. Each 96-well plate contained a vehicle control (0.1% or 0.2% DMSO), a death control Ro 106-9920 (Tocris Cookson Ltd., Bristol, UK) a growth control (untreated cells compared to vehicle treated cells), and blank wells without cells. The proliferation assay was stopped after 4 days by crystal violet staining of the cells (0.5% in 20% methanol). Following extraction of the crystal violet with 8% acetic acid, the eluates were quantified photometrically at 570 nm and the reference wavelength 690 nm in an absorbance microplate reader (Tecan Sunrise; Tecan, Männedorf, Switzerland). Only readouts from 96-well plates with a Z-factor between 0.5 and 1.0 were used. Blank OD values were subtracted from the mean OD values. Nonlinear curve fitting and EC50 calculation was performed with Excel Solver.

SNU-475 = assay: Proliferation assay; type: cell-based; details: for EC50: Homo sapiens, read-out: EC50, anti-proliferative activity of kinase inhibitors
Excerpt: as §1, §2

HepG2 = assay: Proliferation assay; type: cell-based; details: for EC50: Homo sapiens, 96 h, 4 days
Excerpt: as §1, §2

HuH-7 = assay: Proliferation assay; type: cell-based; details: for EC50: Homo sapiens, 96 h, 4 days
Excerpt: as §1, §2

SNU-387 = assay: Proliferation assay; type: cell-based; details: SNU-387 vs HepG2, PLC/PRF/5, HuH-7 (Fig. 1F)
Excerpt: as §1, §2

[1] = system: Hep3B2.1-7 human hepatic carcinoma
Excerpt: The orthotopic xenograft mouse model of Hep3B2.1–7 human hepatic carcinoma was previously established. Tumors were created by injection of 2.5 × 10^6 Hep3B2.1-7 cells (ATCC, RRID:CVCL_0326; Virginia, Manassas, USA) into the main lobe of the liver of anaesthetized female SCID mice (C.B-17-Igh-1bPrkdc(scid)). […] Treatments were continued for 21 days. Treatment of animals was ceased when the body weight dropped below 85% of that on entry of the study. Only mice culled at the termination date were used to determine the tumor weight. The experiment was conducted by vivoPharm pty Ltd (Bundoora, Australia) in accordance with the principles outlined in the “Australian Code of Practice for the Care and Use of Animals for Scientific Purposes”, 7th Edition, 2004 (National Health and Medical Research Council, Canberra, Australia). All procedures involving animals were reviewed and approved by the University of Adelaide Animal Ethics Committee. The study was carried out in compliance with the ARRIVE guidelines (http://www.nc3rs.org.uk/page.asp?id=1357). […]
invasion assay. The ODs of the invaded cells were normalized relative to ODs from tissue […]
Orthotopic xenograft mouse model
The orthotopic xenograft mouse model of Hep3B2.1-7 human hepatic carcinom a was previously established. The experiment was conducted by vivoPharm pty Ltd (Australia) in accordance with the principles outlined in the Australian Code of Practice for the Care and Use of Animals for Scientific Purposes, 7th Edition, 2004 (National Health and Medical Research Council). Procedures involving the care and use of animals in thi s study were reviewed and approved by the University of Adelaide Animal Ethics Committee. The study was carried out in compliance with the ARRIVE guidelines
(http://www.nc3rs.org.uk/page.asp?id=1357).
The animals were delivered to the test facility 1 1 days prior inoculation. On arrival, all animals received a detailed physical examination, including body weight measurement by the […]
technical staff. […] Each a nimal was identified by a transponder (Bar Code Data Systems Pty Ltd, Botany Bay, NSW, Australia) that could be scanned with a barcode reader (DataMars LabMax I). The transponder was implanted by subcutaneous injection between the shoulder blades while the mouse was under isoflurane-induced anaesthesia. The animals were housed in groups of six in micro-isolator cages (two cages per group). Each cage was clearly labelled with a cage card indicating study number, group, gender, and prescribed dose concentration and dose volume. The animals were kept in a controlled environment (targeted ranges: temperature 21 ± 3°C, humidity 30 -70%, 15 air changes per hour), with a light/dark cycle each of 12 hours, and under barrier (quarantine) conditions. Temperature and relative humidity were monitored continuously. All animals were subjected to the same environmental conditions. A standard certified commercial rodent diet (Rat and Mouse Cubes, Specialty Feeds Pty Ltd, Glen Forrest, WA, Australia) and tap water were provided to the animals ad libitum. Food supply was sterilized by autoclaving, and water […]
supply was sterilized by acidification with hydrochloric acid (pH 2.4-2.7) by Laboratory Animal Services, University of Adelaide (Adelaide, SA, Australia). Additional feed (a nimal seed, Magill Grain Store, Magill, SA, Australia), as well as wet standard feed was provided to all animals from Day 7 onwards, as a measure to minimize body w eight loss. The extent of adverse reaction was assessed during the study and mice were culled if severe adverse […]
The age range of the mice were 12-16 weeks at
Hep3B2.1-7 human hepatic carcinoma cells were sourced from the American Type Culture […]
Collection (ATCC; Virginia, USA).

[2] = system: PLC/PRF/5 and SNU-475 cells; assay: ELISA for growth factors PDGF-AA, TGF and VEGF; type: cell-based; details: tissue culture supernatants, with or without platelets (Fig. S4B)
Procedure: A. The growth factors PDGF-AA, TGFβ and VEGF were determined from tissue culture supernatants by ELISA. PLC/PRF/5 and SNU-475 cells were cultured with increasing […]
(1 picture or pasted object on this page, not shown here) […]
amounts of platelets. In parallel, platelets were cultured without cells to determine if the growth factors were platelet derived.
B. ELSIAs for PDGF-AA, TGFβ and VEGF were performed after drug treatment of PC/PRF/5 and SNU-475 cells. Cells were cultured as indicated with or without platelets and treated with resminostat, sorafenib, the drug combination or vehicle control 0.1% DMSO.
Table S1_ EC50 cell line screen
S1D. The cancer cell lines, their tissue origins and the respective EC50 values are shown.
Each cell line was seeded in duplicates.

[3] = PLC/PRF/5 (Fig. 6B), read-out: EC50, anti-proliferative activity of kinase inhibitors

| EC50 (SNU-475; SNU-475 (Fig. 6B)) [µM] | EC50 (HepG2; HepG2, fetal bovine serum, read-out: EC50 in FBS) [µM] | EC50 (HepG2; HepG2, platelet lysate, absolute EC50, read-out: EC50 in PL, absolute EC50 (*)) [µM] | EC50 (HuH-7; HuH-7, fetal bovine serum, read-out: EC50 in FBS) [µM] | EC50 (HuH-7; HuH-7, platelet lysate, absolute EC50, read-out: EC50 in PL, absolute EC50 (*)) [µM] | EC50 compared to the epithelial cell lines (SNU-387) | EC50 compared to the epithelial cell lines (SNU-475; SNU-475 vs HepG2, PLC/PRF/5, HuH-7 (Fig. 1F)) | SMILES | EC50 (PLC/PRF/5; [3]) [µM] | EC50, anti-proliferative activity of kinase inhibitors (SNU-475; SNU-475 (Fig. 6B)) | Ratio PL/FBS (HepG2; HepG2, ratio of PL/FBS EC50s) | Ratio PL/FBS (HuH-7; HuH-7, ratio of PL/FBS EC50s) | EC50 (PLC/PRF/5; 96 h, PLC/PRF/5, fetal bovine serum, 4 days, read-out: EC50 in FBS) [µM] | EC50 (PLC/PRF/5; 96 h, PLC/PRF/5, platelet lysate, 4 days, absolute EC50, read-out: EC50 in PL, absolute EC50 (*)) [µM] | effect of platelet factors on potency and efficacy (PLC/PRF/5; PLC/PRF/5, platelet lysate vs FBS dose-response curves (Fig. 2A)) | maximal inhibition (PLC/PRF/5; PLC/PRF/5, platelet lysate, at 25 µM) | Ratio PL/FBS (PLC/PRF/5; PLC/PRF/5, ratio of PL/FBS EC50s) | Tumour weight, Mean ([1]; 40 mg/kg oral once daily, 21 days, SCID mice) [g] | tumor weight compared to the vehicle control ([1]; daily resminostat 15 and 40 mg/kg, sorafenib 40 mg/kg, or combination (Fig. 1B)) | growth factors released by platelets or secreted by HCC cells [2] |
| --- | --- | --- | --- | --- | --- | --- | --- | --- | --- | --- | --- | --- | --- | --- | --- | --- | --- | --- | --- |
| ~5 | – | – | – | – | – | – | C[C@@H](Oc1cc(-c2cnn(C3CCNCC3)c2)cnc1N)c1c(Cl)ccc(F)c1Cl [crizotinib, Crizotinib] | ~5 | – | – | – | – | – | – | – | – | – | – | – |
| > 25 | – | – | – | – | – | – | COc1cc2nccc(Oc3ccc(NC(=O)NC4CC4)c(Cl)c3)c2cc1C(N)=O [lenvatinib, Lenvatinib] | ~17 | could not be determined due to a lack of efficacy | – | – | – | – | – | – | – | – | – | – |
| – | 1.8 ± 0.4 | 11.5 ± 1.3 | 4.4 ± 0.9 | 14 ± 2.5 | about three-fold higher | about three-fold higher | CNC(=O)c1cc(Oc2ccc(NC(=O)Nc3ccc(Cl)c(C(F)(F)F)c3)cc2)ccn1 [sorafenib, Sorafenib] | – | – | 6.4 | 3.2 | 4.8 ± 0.6 | 22.1 ± 2.5 | reduced | not reached | 4.6 | 1.11 | significantly reduced tumor weight | not consistantly affected |
